Data as given in ChEMBL document CHEMBL5113400, “Design, synthesis, and biological evaluation of trizole-based heteroaromatic derivatives as Bcr-Abl kinase inhibitors” (Eur J Med Chem, 2022).
The source made the active and inactive calls. The rule behind the calls is not given here.

Key:
BaF3 [1] = test: Antiproliferative activity against mouse BaF3 cells expressing Bcr-Abl T315I mutant assessed as inhibition of cell growth at 30 uM incubated for 72 hrs by CellTiter-Glo luminescent assay; type: functional
K562 [2] = test: Induction of apoptosis in human K562 cells assessed as necrotic cells at 10 uM incubated for 48 hrs by Annexin V-FITC/PI staining based flow cytometry analysis (Rvb= 0.25%); type: functional
BaF3 [3] = test: Antiproliferative activity against mouse BaF3 cells assessed as inhibition of cell growth incubated for 72 hrs by CellTiter-Glo luminescent assay; type: functional, cell-based; settings: BaF3, 72 h
HEK293 = test: Cytotoxicity against human HEK293 cells assessed as inhibition of cell growth upto 100 uM incubated for 48 hrs by MTT assay; type: toxicity, cell-based; settings: hek293, 48 h
K562 [4] = test: Induction of apoptosis in human K562 cells assessed as early apoptotic cells at 10 uM incubated for 48 hrs by Annexin V-FITC/PI staining based flow cytometry analysis (Rvb= 11.35%); type: functional
[5] = molecular target: T1, Signal transducer and activator of transcription 5A (Homo sapiens) (UniProt P42229); test: Inhibition of STAT5 phosphorylation at Tyr694 residue in human K562 cells expressing wild type Bcr-Abl at 0.1 to 15 uM measured after 48 hrs by Western blot analysis; type: cell-based; settings: dose 0.1-15 µM, DDE = dose-dependent effect
T1 sequence (whole entry): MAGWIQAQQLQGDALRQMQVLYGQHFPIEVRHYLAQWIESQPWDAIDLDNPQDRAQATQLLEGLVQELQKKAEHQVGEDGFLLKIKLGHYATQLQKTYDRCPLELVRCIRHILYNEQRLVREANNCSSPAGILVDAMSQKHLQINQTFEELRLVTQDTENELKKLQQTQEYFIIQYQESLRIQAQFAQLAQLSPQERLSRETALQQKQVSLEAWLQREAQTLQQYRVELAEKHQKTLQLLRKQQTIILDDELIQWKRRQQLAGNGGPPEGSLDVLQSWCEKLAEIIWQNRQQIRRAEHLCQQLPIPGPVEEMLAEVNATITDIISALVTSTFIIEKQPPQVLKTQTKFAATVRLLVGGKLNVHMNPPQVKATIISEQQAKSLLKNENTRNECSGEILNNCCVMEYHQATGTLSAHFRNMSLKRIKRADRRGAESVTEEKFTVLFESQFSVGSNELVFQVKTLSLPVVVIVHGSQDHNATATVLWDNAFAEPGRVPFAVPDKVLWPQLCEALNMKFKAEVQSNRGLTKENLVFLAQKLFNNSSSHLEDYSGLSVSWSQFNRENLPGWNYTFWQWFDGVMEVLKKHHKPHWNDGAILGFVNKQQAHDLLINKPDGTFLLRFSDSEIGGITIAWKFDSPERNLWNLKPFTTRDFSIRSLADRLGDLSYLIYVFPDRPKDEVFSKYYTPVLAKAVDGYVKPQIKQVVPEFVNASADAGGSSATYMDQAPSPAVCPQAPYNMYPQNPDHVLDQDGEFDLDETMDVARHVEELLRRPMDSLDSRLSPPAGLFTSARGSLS

K562 [6] = test: Induction of apoptosis in human K562 cells assessed as late apoptotic cells at 20 uM incubated for 48 hrs by Annexin V-FITC/PI staining based flow cytometry analysis (Rvb= 5.35%); type: functional
K562 [7] = test: Induction of apoptosis in human K562 cells assessed as early apoptotic cells at 20 uM incubated for 48 hrs by Annexin V-FITC/PI staining based flow cytometry analysis (Rvb= 11.35%); type: functional
[8] = molecular target: T2, Bcr/Abl fusion protein (Homo sapiens) (UniProt P00519+P11274); test: Inhibition of Bcr-Abl phosphorylation at Tyr245 residue in human K562 cells expressing wild type Bcr-Abl at 0.1 to 15 uM measured after 48 hrs by Western blot analysis; type: cell-based; settings: dose 0.1-15 µM, DDE = dose-dependent effect
K562 [9] = test: Induction of apoptosis in human K562 cells assessed as viable cells at 10 uM incubated for 48 hrs by Annexin V-FITC/PI staining based flow cytometry analysis (Rvb= 83.0.5%); type: functional; settings: read-out: Activity
K562 [10] = test: Antiproliferative activity against human K562 cells assessed as inhibition of cell growth incubated for 48 hrs by MTT assay; type: functional, cell-based; settings: K562, 48 h
K562 [11] = test: Induction of apoptosis in human K562 cells assessed as late apoptotic cells at 10 uM incubated for 48 hrs by Annexin V-FITC/PI staining based flow cytometry analysis (Rvb= 5.35%); type: functional
Bcr/Abl fusion protein [12] = molecular target: Bcr/Abl fusion protein (Homo sapiens, UniProt P00519); test: Inhibition of wild type Bcr-Abl (unknown origin) incubated for 1 hr in presence of ATP by ADP-Glo kinase assay; type: protein assay
K562 [13] = test: Induction of apoptosis in human K562 cells assessed as late apoptotic cells at 5 uM incubated for 48 hrs by Annexin V-FITC/PI staining based flow cytometry analysis (Rvb= 5.35%); type: functional
BaF3 [14] = test: Antiproliferative activity against mouse BaF3 cells expressing Bcr-Abl T315I mutant assessed as inhibition of cell growth incubated for 72 hrs by CellTiter-Glo luminescent assay; type: functional, cell-based; settings: BaF3, 72 h
K562 [15] = test: Induction of apoptosis in human K562 cells assessed as viable cells at 20 uM incubated for 48 hrs by Annexin V-FITC/PI staining based flow cytometry analysis (Rvb= 83.0.5%); type: functional; settings: read-out: Activity
K562 [16] = test: Induction of apoptosis in human K562 cells assessed as necrotic cells at 20 uM incubated for 48 hrs by Annexin V-FITC/PI staining based flow cytometry analysis (Rvb= 0.25%); type: functional
EA.hy 926 = test: Cytotoxicity against human EA.hy 926 cells assessed as inhibition of cell growth upto 100 uM incubated for 48 hrs by MTT assay; type: toxicity, cell-based; settings: ea.hy 926, 48 h
BaF3 [17] = test: Antiproliferative activity against mouse BaF3 cells expressing wild type Bcr-Abl assessed as inhibition of cell growth incubated for 72 hrs by CellTiter-Glo luminescent assay; type: functional, cell-based; settings: BaF3, 72 h
K562 [18] = test: Induction of cell cycle arrest in human K562 cells assessed as accumulation at S phase at 5 to 20 uM incubated for 48 hrs by PI staining based flow cytometry (Rvb=49%); type: functional; settings: dose 5-20 µM
K562 [19] = test: Induction of apoptosis in human K562 cells assessed as viable cells at 5 uM incubated for 48 hrs by Annexin V-FITC/PI staining based flow cytometry analysis (Rvb= 83.0.5%); type: functional; settings: read-out: Activity
K562 [20] = test: Induction of apoptosis in human K562 cells assessed as necrotic cells at 5 uM incubated for 48 hrs by Annexin V-FITC/PI staining based flow cytometry analysis (Rvb= 0.25%); type: functional
Bcr/Abl fusion protein [21] = molecular target: Bcr/Abl fusion protein (Homo sapiens, UniProt P00519, T315I); test: Inhibition of Bcr-Abl T315I mutant (unknown origin) incubated for 1 hr in presence of ATP by ADP-Glo kinase assay; type: protein assay
K562 [22] = test: Induction of apoptosis in human K562 cells assessed as early apoptotic cells at 5 uM incubated for 48 hrs by Annexin V-FITC/PI staining based flow cytometry analysis (Rvb= 11.35%); type: functional
K562/Adr = test: Antiproliferative activity against human Adriamycin-resistant K562/Adr cells assessed as inhibition of cell growth incubated for 48 hrs by MTT assay; type: functional, cell-based
K-562R = test: Antiproliferative activity against human K-562R cells expressing Bcr-Abl T315I mutant assessed as inhibition of cell growth incubated for 48 hrs by MTT assay; type: functional, cell-based
K562 [23] = test: Induction of apoptosis in human K562 cells assessed as early apoptotic cells at 5 uM incubated for 48 hrs by Annexin V-FITC/PI staining based flow cytometry analysis (Rvb= […]); type: functional
[24] = molecular target: T2, Bcr/Abl fusion protein (Homo sapiens); test: Inhibition of Bcr-Abl phosphorylation at Tyr245 residue in human K562 cells expressing wild type Bcr-Abl at 5 to 15 uM measured after 48 hrs by Western blot analysis; type: cell-based; settings: dose 5-15 µM
K562 [25] = test: Induction of apoptosis in human K562 cells assessed as early apoptotic cells at 10 uM incubated for 48 hrs by Annexin V-FITC/PI staining based flow cytometry analysis (Rvb= […]); type: functional
K562 [26] = test: Induction of apoptosis in human K562 cells assessed as viable cells at 1 uM incubated for 48 hrs by Annexin V-FITC/PI staining based flow cytometry analysis (Rvb= 80.56%); type: functional; settings: read-out: Activity
K562 [27] = test: Induction of apoptosis in human K562 cells assessed as late apoptotic cells at 1 uM incubated for 48 hrs by Annexin V-FITC/PI staining based flow cytometry analysis (Rvb= 2.89%); type: functional
K562 [28] = test: Induction of apoptosis in human K562 cells assessed as necrotic cells at 10 uM incubated for 48 hrs by Annexin V-FITC/PI staining based flow cytometry analysis (Rvb= 0.29%); type: functional
K562 [29] = test: Induction of apoptosis in human K562 cells assessed as late apoptotic cells at 10 uM incubated for 48 hrs by Annexin V-FITC/PI staining based flow cytometry analysis (Rvb= 2.89%); type: functional
K562 [30] = test: Induction of apoptosis in human K562 cells assessed as viable cells at 5 uM incubated for 48 hrs by Annexin V-FITC/PI staining based flow cytometry analysis (Rvb= 80.56%); type: functional; settings: read-out: Activity
K562 [31] = test: Induction of cell cycle arrest in human K562 cells assessed as reduction in G0/G1 phase at 1 to 10 uM incubated for 48 hrs by PI staining based flow cytometry; type: functional; settings: dose 1-10 µM
K562 [32] = test: Induction of apoptosis in human K562 cells assessed as viable cells at 10 uM incubated for 48 hrs by Annexin V-FITC/PI staining based flow cytometry analysis (Rvb= 80.56%); type: functional; settings: read-out: Activity
K562 [33] = test: Induction of apoptosis in human K562 cells assessed as late apoptotic cells at 5 uM incubated for 48 hrs by Annexin V-FITC/PI staining based flow cytometry analysis (Rvb= 2.89%); type: functional
K562 [34] = test: Induction of cell cycle arrest in human K562 cells assessed as accumulation at S phase at 1 to 10 uM incubated for 48 hrs by PI staining based flow cytometry; type: functional; settings: dose 1-10 µM
K562 [35] = test: Induction of apoptosis in human K562 cells assessed as early apoptotic cells at 1 uM incubated for 48 hrs by Annexin V-FITC/PI staining based flow cytometry analysis (Rvb= […]); type: functional
K562 [36] = test: Induction of apoptosis in human K562 cells assessed as necrotic cells at 1 uM incubated for 48 hrs by Annexin V-FITC/PI staining based flow cytometry analysis (Rvb= 0.29%); type: functional
K562 [37] = test: Induction of apoptosis in human K562 cells assessed as necrotic cells at 5 uM incubated for 48 hrs by Annexin V-FITC/PI staining based flow cytometry analysis (Rvb= 0.29%); type: functional

## O=C(Nc1n[nH]c2cc(-c3cn([C@@H]4CN[C@H](C(=O)Nc5ccc(Cl)c(C(F)(F)F)c5)C4)nn3)ccc12)C1CC1
BaF3 [1]
  inhibition at 30 µM: 85.4%
K562 [2]
  Activity: 0.19%
BaF3 [3]
  IC50: > 20 µM
HEK293
  Activity: Non-Toxic
K562 [4]
  Activity: 18.48%
[5]
  inhibition: Dde
K562 [6]
  Activity: 12.2%
K562 [7]
  Activity: 33.16%
[8]
  inhibition: Dde
K562 [9]
  viability at 10 µM: 68.6%
K562 [10]
  IC50: 5.2 µM
K562 [11]
  Activity: 12.74%
Bcr/Abl fusion protein [12]
  IC50: 0.0015 µM
K562 [13]
  Activity: 8.75%
BaF3 [14]
  IC50: 9.47 µM
K562 [15]
  viability at 20 µM: 54.4%
K562 [16]
  Activity: 0.23%
EA.hy 926
  Activity: Non-Toxic
BaF3 [17]
  IC50: 1.42 µM
K562 [18]
  Activity: 54.15%
K562 [19]
  viability at 5 µM: 76.7%
K562 [20]
  Activity: 0.22%
Bcr/Abl fusion protein [21]
  IC50: 0.188 µM
K562 [22]
  Activity: 14.34%
K562/Adr
  IC50: 9.57 µM
K-562R
  IC50: 40.1 µM

## CS(=O)(=O)Nc1ccc(-c2cn([C@@H]3CN[C@H](C(=O)Nc4ccc(Cl)c(C(F)(F)F)c4)C3)nn2)cn1
BaF3 [1]
  inhibition at 30 µM: 99.7%
K562 [23]
  Activity: 17.14%
BaF3 [3]
  IC50: > 20 µM
[24]
  inhibition: Active
K562 [25]
  Activity: 23.79%
K562 [26]
  viability at 1 µM: 79.3%
K562 [27]
  Activity: 2.43%
K562 [28]
  Activity: 0.28%
HEK293
  Activity: Non-Toxic
K562 [29]
  Activity: 4.11%
K562 [30]
  viability at 5 µM: 79.3%
K562 [31]
  Activity: Active
[5]
  inhibition: Dde
K562 [32]
  viability at 10 µM: 71.8%
K562 [10]
  IC50: 5.06 µM
K562 [33]
  Activity: 3.19%
K562 [34]
  Activity: Active
Bcr/Abl fusion protein [12]
  IC50: 0.00049 µM
BaF3 [14]
  IC50: 4.13 µM
K562 [35]
  Activity: 18.03%
EA.hy 926
  Activity: Non-Toxic
BaF3 [17]
  IC50: 6.96 µM
K562 [36]
  Activity: 0.19%
Bcr/Abl fusion protein [21]
  IC50: 0.111 µM
K562/Adr
  IC50: 4.72 µM
K-562R
  IC50: 13.3 µM
K562 [37]
  Activity: 0.4%
